Key:
[1] = Body weight, rats with gastric injury without inflammation; assay type: in vivo; details: 1.11 mmol/kg force-fed, one day after, FIG. 17
Description: The medicinal activity of the compound according to the invention and the pharmaceutical composition according to the invention was tested in a series of experiments performed on rats. The experiments were performed on male Sprague-Dawley rats (280-320 g) housed in plastic cages in a thermoneutral environment (21° C.±2° C.) with a 12 h dark-light cycle. The animals, fed on a normal diet with tap water ad libitum, were randomly allocated into experimental groups according to the feeding protocols.
Further experiments regarding the effect of a compound of formula (I) and a pharmaceutical composition comprising a compound of formula (I), respectively, on gastric injury without inflammation were conducted on rats. 15 animals were randomly allocated into three groups. Group H (n=5) served as sham-operated controls. Samples of all animals were drawn on day 1 of the clinical tests. On day 2 the animals of group I (n=5) were force-fed acetylsalicylic acid (ASS) (1.11 mmol/kg body weight). […] Fluorescence confocal endomicroscopy was performed to examine the microvasculature and morphologic changes of the mucosa of the distal colon, and full-thickness tissue samples and venous blood samples were taken to determine the biochemical changes in the colon and plasma. The effects were determined by way of measurement of body weight, blood gas analysation and biopsy. […]

nitrite/nitrate (NOx) [2] = test: Nitrite/nitrate level in blood, rats with TNBS-induced colitis; assay type: in vivo; details: 1.11 mmol/kg, vs groups L and M, FIG. 34
Description: Colonic inflammation was induced by intracolonic administration of TNBS (2,4,6-trinitrobenzenesulfonic acid) (40 mg/kg in 0.25 ml of 25% aqueous ethanol) through an 8-cm-long soft plastic catheter under transient diethylether anesthesia. In the sham-operated groups, only the vehicle for TNBS was administered. The animals were deprived of food, but not water, for 12 h before the enemas.
(§1) The levels of plasma nitrite/nitrate (NOx), stable end products of NO were measured by the Griess reaction. This assay depends on the reduction of nitrate to nitrite, which is then converted into a colored azo dye compound that is detected spectrophotometrically at 540 nm.
The above-described clinical studies were repeated with animals having colitis which was induced as described above. […] Two days after the enema the effects of the treatment were determined by measurement of body weight, blood gas analysis and biopsy. […] Surgery was performed to allow registration of the hemodynamic parameters at 1 h intervals for 6 h (cardiac output [CO] data were measured only at the end of the experiments). […] In addition, fluorescence confocal endomicroscopy was performed to examine the microvasculature and morphologic changes of the mucosa of the distal colon, and full-thickness tissue samples and venous blood samples were taken to determine the biochemical changes in the colon and plasma.

xanthine oxidase enzyme = test: Xanthine oxidase enzyme activity in tissue, mice with gastric injury without inflammation; assay type: in vivo; details: gastric and duodenal tissue, 1.11 mmol/kg, vs control group A, FIGS. 6a/6b
Description: The XOR activity was determined in the ultrafiltered, concentrated supernatant by fluorometric kinetic assay based on the conversion of pterine to isoxanthopterine in the presence (total XOR) or absence (xanthine oxidase activity) of the electron acceptor methylene blue.
First experiments regarding the effect of the compound of formula (I) and a pharmaceutical composition comprising the compound of formula (I) (clear aqueous solution of compound of formula (I) at pH 4.8), respectively, on gastric injury without inflammation were conducted on mice. 48 animals were randomly allocated into three groups. Group A (n=16) served as sham-operated controls. Samples of all animals were drawn on day 1 of the clinical tests. On day 2 the animals of group B (n=16) were force-fed acetylsalicylic acid (ASS) (1.11 mmol/kg body weight). Group C (n=16) was force-fed 1.11 mmol/kg body weight of the compound according to the invention. Group A only received the respective solvent (25% ethanol in water). One day after the gavage, additional samples were drawn. Fluorescence confocal endomicroscopy was performed to examine the microvasculature and morphologic changes of the mucosa of the distal colon, […] The effects were determined by way of measurement of body weight, blood gas analysation and biopsy. […]

colon inflammation = test: Macroscopic score of colon inflammation, rats with TNBS-induced colitis; assay type: in vivo; details: 1.11 mmol/kg, Morris score 0-4, untreated colitis group class 3 to 4, FIG. 29
Description: Colonic inflammation was induced by intracolonic administration of TNBS (2,4,6-trinitrobenzenesulfonic acid) (40 mg/kg in 0.25 ml of 25% aqueous ethanol) through an 8-cm-long soft plastic catheter under transient diethylether anesthesia. In the sham-operated groups, only the vehicle for TNBS was administered. The animals were deprived of food, but not water, for 12 h before the enemas. […] The other animals only received the respective solvent again. Two days after the enema the effects of the treatment were determined by measurement of body weight, blood gas analysis and biopsy. The animals were anesthetized two days after colitis induction. Surgery was performed to allow registration of the hemodynamic parameters at 1 h intervals for 6 h (cardiac output [CO] data were measured only at the end of the experiments). Intravital videomicroscopy was performed at the end of the experiments to visualize the serosal microcirculation 3 cm distal from the cecum. In addition, fluorescence confocal endomicroscopy was performed to examine the microvasculature and morphologic changes of the mucosa of the distal colon, and full-thickness tissue samples and venous blood samples were taken to determine the biochemical changes in the colon and plasma. […]

nitrite/nitrate (NOx) [3] = test: Nitrite/nitrate level, colitis animals, comparison with GM-20 (FIG. 35); assay type: in vivo, rats; details: 1.11 mmol/kg body weight, vs sham control group P
Description: as §1
The above-described clinical studies were repeated with animals having colitis which was induced as described above. 20 animals (rats) were randomly divided into four groups, wherein group L served as sham-operated control, having no colitis, group M served as second control having colitis but receiving no further treatment, group N having colitis and being treated with 1.11 mmol/kg body weight of ASS and group O having colitis and being treated with 1.11 mmol/kg of the compound according to the invention. One day after the animals received the enema with TNBS (40 mg/kg i.c.), wherein the animals of group L only received the respective solvent, the animals of group N and O were treated with ASS and the compound according to the invention, respectively. The other animals only received the respective solvent again. Two days after the enema the effects of the treatment were determined by measurement of body weight, blood gas analysis and biopsy. […] Surgery was performed to allow registration of the hemodynamic parameters at 1 h intervals for 6 h (cardiac output [CO] data were measured only at the end of the experiments). […] In addition, fluorescence confocal endomicroscopy was performed to examine the microvasculature and morphologic changes of the mucosa of the distal colon, and full-thickness tissue samples and venous blood samples were taken to determine the biochemical changes in the colon and plasma.
The tests were conducted according to the above described protocol. […] Comparative compound GM-20 is described in the state of the art as being suitable for the therapeutic treatment pathologic disorders characterized by degranulation of the mast cells caused by immunogenic hyperstimulation (see U.S. Pat. No. 5,506,224) The nitrite/nitrate level was measured as described above.

Compound | change in body weight [1] | nitrite/nitrate level in the blood (nitrite/nitrate (NOx) [2]) | activity of xanthine oxidase enzyme (xanthine oxidase enzyme) | macroscopic score of colon inflammation (colon inflammation) | nitrite/nitrate level (nitrite/nitrate (NOx) [3])
CC(=O)Oc1ccccc1C(=O)O [ASS, acetylsalicylic acid, reference compound] | severe loss of body weight | increased nitrite/nitrate level | increased activity | slightly less severe symptoms | increased nitrite/nitrate level
CC(=O)Oc1ccccc1C(=O)NC(CO)(CO)CO [compound according to the invention] | only showed a minor loss in body weight | nitrite/nitrate levels comparable to those of healthy animals | no such increase | only showed increased erythema | did not lead to an increase in the nitrite/nitrate level

From US20160326098A1, “Pharmaceutically Active Compound for Use as Anti-inflammatory Agent” (Pax Forschung GmbH, priority 2013, published 2016)
